Data as given in patent publication US11084818B2 (HEPO PHARMACEUTICAL CO., LTD., priority 2016, dated 2021).

Key:
hTLR8 = molecular target: T1, hTLR8 (Homo sapiens, UniProt Q9NR97); assay: Activation activity test of hTLR8 (HEK-Blue hTLR8 cells, QUANTI-Blue OD650); type: cell-based; conditions: for EC50: HEK-Blue hTLR8 cells, 24 hours incubation, read-out: TLR8 (EC50)
T1 construct: host or cells: HEK-Blue hTLR8 (HEK293-derived reporter line)
T1 sequence (Q9NR97 27-1041): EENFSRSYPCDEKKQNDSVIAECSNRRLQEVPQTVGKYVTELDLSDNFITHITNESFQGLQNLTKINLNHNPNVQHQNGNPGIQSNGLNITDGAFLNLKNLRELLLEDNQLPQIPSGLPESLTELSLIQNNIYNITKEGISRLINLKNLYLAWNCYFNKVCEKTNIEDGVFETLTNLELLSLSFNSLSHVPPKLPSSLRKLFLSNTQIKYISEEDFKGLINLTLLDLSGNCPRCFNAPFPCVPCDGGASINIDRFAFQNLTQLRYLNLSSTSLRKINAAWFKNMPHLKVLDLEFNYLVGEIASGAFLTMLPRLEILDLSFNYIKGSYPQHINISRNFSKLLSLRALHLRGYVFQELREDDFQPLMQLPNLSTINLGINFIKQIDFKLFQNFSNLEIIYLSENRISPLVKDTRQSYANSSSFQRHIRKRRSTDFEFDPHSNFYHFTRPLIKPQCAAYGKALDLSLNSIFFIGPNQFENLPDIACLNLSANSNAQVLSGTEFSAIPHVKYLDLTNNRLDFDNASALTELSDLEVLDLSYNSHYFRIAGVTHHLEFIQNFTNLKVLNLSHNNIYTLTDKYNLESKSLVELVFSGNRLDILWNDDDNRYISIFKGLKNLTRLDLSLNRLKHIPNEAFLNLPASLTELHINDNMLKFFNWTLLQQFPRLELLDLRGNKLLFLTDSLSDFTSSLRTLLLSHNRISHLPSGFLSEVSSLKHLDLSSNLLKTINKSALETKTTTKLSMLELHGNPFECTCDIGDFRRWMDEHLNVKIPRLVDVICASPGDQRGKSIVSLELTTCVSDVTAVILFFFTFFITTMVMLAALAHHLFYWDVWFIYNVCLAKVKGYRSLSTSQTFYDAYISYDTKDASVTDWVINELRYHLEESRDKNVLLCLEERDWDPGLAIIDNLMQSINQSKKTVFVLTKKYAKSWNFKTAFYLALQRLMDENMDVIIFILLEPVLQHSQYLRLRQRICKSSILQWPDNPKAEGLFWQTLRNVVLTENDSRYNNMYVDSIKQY
Description: (§1) Effect Example 1: Activation Activity Test of hTLR7 and hTLR8
(§2) Cell lines: HEK-Blue™ hTLR7 and HEK-Blue™ hTLR8 (InvivoGen Co.)
(§3) Primary reagents: QUANTI-Blue™ (InvivoGen) and ATPlite 1 Step (PerkinElmer)
(§4) Primary instruments: Automatic Liquid Handling Workstation (Labcyte, Model: Echo), Cell Counter (Countstar, IC1000) and Multifunctional Enzyme Marker (Molecular Device, Flexstation III).
(§5) 2.1 The tested compounds were formulated into a 60 mM concentrated stock solution in DMSO and stored in a nitrogen cabinet.
(§6) 2.3 The T150 cultured cells were taken out from the CO2 incubator and the cell culture supernatant was discarded. The cells were washed with PBS once, followed by addition of about 10 mL of the culture solution. The cells were dissociated by patting the cell culture flask, and gently blown to even by a pipette.
(§7) The cells were counted, and the cell suspension was adjusted to 200,000 cells/mL by the culture solution. Thereafter, 200 μL of diluted cells was added to each well in a 96-well plate containing the compound (40,000 cells/well).
(§8) 2.4 The compounds and cells were incubated in a 5% CO2 incubator at 37° C. for 24 hours.
(§9) 2.5 Compound activity assay: 20 μl of the cell supernatant of each well after induction was added to a cell culture plate containing 180 μL of reagent QUANTI-Blue™, and incubated at 37° C. for 1.5 hours. Thereafter, the optical density absorption (OD650) of each well at 650 nm was measured using a Multifunctional Enzyme Marker: Flexstation III.
(§10) 2.6 Compound Activity: OD650 values were analyzed using GraphPad Prism software and the dose-response curves for the compound were fitted to calculate the EC50 values of the compound.

hTLR7 = molecular target: T2, hTLR7 (Homo sapiens, UniProt Q9NYK1); assay: Activation activity test of hTLR7 (HEK-Blue hTLR7 cells, QUANTI-Blue OD650); type: cell-based; conditions: 24 hours incubation, read-out: TLR7 (EC50)
T2 construct: host or cells: HEK-Blue hTLR7 (HEK293-derived reporter line)
T2 sequence (Q9NYK1 27-1049): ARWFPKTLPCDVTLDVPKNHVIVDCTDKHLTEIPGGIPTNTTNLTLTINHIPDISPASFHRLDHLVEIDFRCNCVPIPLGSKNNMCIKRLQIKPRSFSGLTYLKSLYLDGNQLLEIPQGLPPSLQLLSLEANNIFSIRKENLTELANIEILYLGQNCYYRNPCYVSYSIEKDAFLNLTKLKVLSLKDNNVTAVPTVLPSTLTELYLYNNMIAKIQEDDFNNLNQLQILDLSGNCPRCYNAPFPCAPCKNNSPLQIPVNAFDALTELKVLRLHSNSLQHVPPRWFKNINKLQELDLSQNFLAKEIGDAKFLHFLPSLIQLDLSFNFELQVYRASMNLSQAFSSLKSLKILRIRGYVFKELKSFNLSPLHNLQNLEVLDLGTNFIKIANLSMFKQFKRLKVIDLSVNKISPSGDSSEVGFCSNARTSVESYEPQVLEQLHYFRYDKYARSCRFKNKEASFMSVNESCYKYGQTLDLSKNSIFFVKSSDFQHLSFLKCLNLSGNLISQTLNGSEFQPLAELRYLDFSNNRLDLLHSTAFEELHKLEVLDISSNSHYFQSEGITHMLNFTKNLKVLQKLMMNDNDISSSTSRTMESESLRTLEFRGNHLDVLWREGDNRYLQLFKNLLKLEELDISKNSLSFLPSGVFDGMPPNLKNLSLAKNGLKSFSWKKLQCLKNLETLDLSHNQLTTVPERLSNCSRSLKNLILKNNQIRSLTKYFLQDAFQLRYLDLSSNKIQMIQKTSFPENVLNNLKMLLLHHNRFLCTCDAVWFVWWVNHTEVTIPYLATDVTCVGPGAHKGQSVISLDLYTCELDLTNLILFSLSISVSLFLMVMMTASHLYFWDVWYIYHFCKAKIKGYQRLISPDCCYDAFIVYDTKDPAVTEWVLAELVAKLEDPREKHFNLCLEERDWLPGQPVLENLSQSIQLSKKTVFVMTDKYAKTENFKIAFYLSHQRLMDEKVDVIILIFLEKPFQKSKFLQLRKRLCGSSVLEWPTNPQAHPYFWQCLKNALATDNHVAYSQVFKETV
Description: as §1, §2, §3, §4, §5, §6, §7, §8, §9, §10

| EC50 (hTLR8) [µM] | EC50 (hTLR7) [µM] | agonistic activity against TLR8 (hTLR8; in words, from Table 1) | SMILES |
| --- | --- | --- | --- |
| > 100 | 0.001 to 1 | – | COCCOc1ncc2[nH]c(=O)n(Cc3ccc([C@@H](C)N4CCCC4)cc3)c2n1 [Example 42, (R)-2-(2-methoxyethoxy)-9-(4-(1-(pyrrolidin-1-yl)ethyl)benzyl)-7,9-dihydro-8H-purin-8-one] |
| > 100 | > 100 | – | COCCNc1ncc2[nH]c(=O)n(Cc3cccc(CN4CCCC4)c3)c2n1 [Example 32, 2-((2-methoxyethyl)amine)-9-(3-(pyrrolidin-1-ylmethyl)benzyl)-7,9-dihydro-8H-purin-8-one] |
| > 100 | 10 to 100 | – | COCCOc1ncc2[nH]c(=O)n(Cc3ccc(CN4CCC(F)(F)C4)cc3)c2n1 [Example 54, 9-(4-((3,3-difluoropyrrolidin-1-yl)methyl)benzyl)-2-(2-methoxyethoxy)-7,9-dihydro-8H-purin-8-one] |
| > 100 | > 100 | – | CCCCSc1ncc2[nH]c(=O)n(Cc3cccc(CN4CCCC4)c3)c2n1 [Example 33, 2-butylthio-9-(3-(pyrrolidin-1-ylmethyl)benzyl)-7,9-dihydro-8H-purin-8-one] |
| > 100 | > 100 | – | CCCC[S+]([O-])c1ncc2[nH]c(=O)n(Cc3cccc(CN4CCCC4)c3)c2n1 (stereo not shown) [Example 34, 2-butylsulfinyl-9-(3-(pyrrolidin-1-ylmethyl)benzyl)-7,9-dihydro-8H-purin-8-one] |
| > 100 | 10 to 100 | – | COCCOc1cc2c(cn1)[nH]c(=O)n2Cc1ccc(CN2CCCC2)cc1 [Example 39, 6-(2-methoxyethoxy)-1-(4-(pyrrolidin-1-ylmethyl)benzyl)-1,3-dihydro-2H-imidazole-[4,5-c]pyridin-2-one] |
| > 100 | 10 to 100 | – | COCCOc1ncc2[nH]c(=O)n(C(C)c3ccc(CN4CCCC4)cc3)c2n1 (stereo not shown) [Example 36] |
| > 100 | 0.001 to 1 | – | O=c1[nH]c2cnc(OCCOC(F)(F)F)nc2n1Cc1ccc(CN2CC=CC2)cc1 [Example 55] |
| > 100 | 1 to 10 | – | COCCOc1ncc2[nH]c(=O)n(Cc3ccc(CN4CC[C@@H](F)C4)cc3)c2n1 [Example 5, (R)-9-(4-((3-fluoropyrrolidin-1-yl)methyl)benzyl)-2-(2-methoxyethoxy)-7,9-dihydro-8H-purin-8-one] |
| > 100 | 0.001 to 1 | – | COCCCOc1ncc2[nH]c(=O)n(Cc3ccc(CN4CCCC4)cc3)c2n1 [Example 45, 9-(4-(pyrrolidin-1-ylmethyl)benzyl)-2-(3-methoxypropoxy)-7,9-dihydro-8H-purin-8-one] |
| > 100 | > 100 | – | COCCOc1ncc2c(n1)n(Cc1ccc(CN3CCCC3)cc1)c(=O)n2C [Example 56, 9-(4-(pyrrolidin-1-ylmethyl)benzyl)-7-methyl-2-(2-methoxyethoxy)-7,9-dihydro-8H-purin-8-one] |
| > 100 | > 100 | – | O=c1[nH]c2cnc(OCCC3CC3)nc2n1Cc1cccc(CN2CCCC2)c1 [Example 29, 2-(2-cyclopropylethoxy)-9-(3-(pyrrolidin-1-ylmethyl)benzyl)-7,9-dihydro-8H-purin-8-one] |
| > 100 | 1 to 10 | – | COCCOc1ncc2[nH]c(=O)n(Cc3ccc(CN4CCCC4)c(F)c3)c2n1 [Example 62, 2-(2-methoxyethoxy)-9-(3-fluoro-4-(pyrrolidin-1-ylmethyl)benzyl)-7,9-dihydro-8H-purin-8-one] |
| > 100 | 1 to 10 | – | COCCOc1ncc2[nH]c(=O)n(Cc3ccc(CN4CCC5(CC4)COC5)cc3)c2n1 [Example 11, 9-(4-((2-oxa-7-azaspiro[3.5]nonan-7-yl)methyl)benzyl)-2-(2-methoxyethoxy)-7,9-dihydro-8H-purin-8-one] |
| > 100 | 1 to 10 | – | COCCOc1ncc2[nH]c(=O)n(Cc3ccc(CN4CCCC4)cc3)c2n1 [Example 1, 2-(2-methoxyethoxy)-9-(4-(pyrrolidin-1-ylmethyl)benzyl)-7,9-dihydro-8H-purin-8-one] |
| > 100 | 1 to 10 | – | COCCOc1ncc2[nH]c(=O)n(Cc3cccc(CN4CCC4)c3)c2n1 [Example 19, 2-(2-methoxyethoxy)-9-(3-(azetidin-1-ylmethyl)benzyl)-7,9-dihydro-8H-purin-8-one] |
| – | – | strong agonistic activity | CCOCc1nc2c(N)nc3ccccc3c2n1CC(C)(C)O [Example R848, reference compound] |
| > 100 | 1 to 10 | – | COCCOc1ncc2[nH]c(=O)n(Cc3ccc(CN4CCCCC4)cc3)c2n1 [Example 3, 2-(2-methoxyethoxy)-9-(4-(piperidin-1-ylmethyl)benzyl)-7,9-dihydro-8H-purin-8-one] |
| > 100 | 0.001 to 1 | – | O=c1[nH]c2cnc(OCCOCC(F)(F)F)nc2n1Cc1ccc(CN2CCCC2)cc1 [Example 48, 9-(4-(pyrrolidin-1-ylmethyl)benzyl)-2-(2-(2,2,2-trifluoroethoxy)ethoxy)-7,9-dihydro-8H-purin-8-one] |
| > 100 | > 100 | – | COCCOCCOc1ncc2[nH]c(=O)n(Cc3cccc(CN4CCCC4)c3)c2n1 [Example 30, 2-(2-(2-methoxyethoxy)ethoxy)-9-(3-(pyrrolidin-1-ylmethyl)benzyl)-7,9-dihydro-8H-purin-8-one] |

| SMILES | EC50 (hTLR8) [µM] | EC50 (hTLR7) [µM] | agonistic activity against TLR8 (hTLR8; in words, from Table 1) |
| --- | --- | --- | --- |
| COCCCCOc1ncc2[nH]c(=O)n(Cc3ccc(CN4CCCC4)cc3)c2n1 [Example 47, 9-(4-(pyrrolidin-1-ylmethyl)benzyl)-2-(4-methoxybutoxy)-7,9-dihydro-8H-purin-8-one] | > 100 | 1 to 10 | – |
| CCCCOc1ncc2[nH]c(=O)n(Cc3cccc(CN4CCCC4)c3)c2n1 [Example 27, 2-butoxy-9-(3-(pyrrolidin-1-ylmethyl)benzyl)-7,9-dihydro-8H-purin-8-one] | 10 to 100 | > 100 | – |
